Experimental data from paper PMC8435237, “Overexpressing the N‐terminus of CATALASE2 enhances plant jasmonic acid biosynthesis and resistance to necrotrophic pathogen Botrytis cinerea B05.10” (Molecular Plant Pathology, 2021).

What was measured:
[1] = target: T1, ACX3 (Arabidopsis thaliana, UniProt P0CZ23); assay: MALDI-TOF/TOF MS of substrate and product; type: biochemical; conditions: no CAT2; 50 mM KPO4 pH 7.6, 50 µM FAD, 100 µg/ml BSA, 25 °C, 30 min; product Δ2-OPC4-CoA
T1 construct: pET28a (plasmid as in Yuan et al. 2017), purified from E. coli
T1 sequence (P0CZ23 35-675): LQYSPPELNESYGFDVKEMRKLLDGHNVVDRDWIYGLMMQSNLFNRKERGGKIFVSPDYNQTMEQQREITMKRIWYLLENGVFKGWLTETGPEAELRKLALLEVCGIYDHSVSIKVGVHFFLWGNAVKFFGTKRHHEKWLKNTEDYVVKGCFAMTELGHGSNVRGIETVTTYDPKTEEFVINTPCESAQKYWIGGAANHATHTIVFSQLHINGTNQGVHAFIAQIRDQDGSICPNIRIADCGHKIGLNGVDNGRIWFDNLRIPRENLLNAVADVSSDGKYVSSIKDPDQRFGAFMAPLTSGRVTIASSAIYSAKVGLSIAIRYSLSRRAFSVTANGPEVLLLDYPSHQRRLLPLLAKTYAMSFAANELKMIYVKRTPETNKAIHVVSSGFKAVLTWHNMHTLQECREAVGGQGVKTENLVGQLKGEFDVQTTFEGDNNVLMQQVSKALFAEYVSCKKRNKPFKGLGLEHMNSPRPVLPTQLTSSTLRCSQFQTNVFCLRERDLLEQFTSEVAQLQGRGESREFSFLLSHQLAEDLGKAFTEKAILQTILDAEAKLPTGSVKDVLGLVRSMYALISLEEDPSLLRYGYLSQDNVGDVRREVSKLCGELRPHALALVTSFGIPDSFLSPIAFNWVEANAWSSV

[2] = target: T2, ACX2 (Arabidopsis thaliana, UniProt O65201); assay: MALDI-TOF/TOF MS of substrate and product; type: biochemical; conditions: no CAT2; 50 mM KPO4 pH 7.6, 50 µM FAD, 100 µg/ml BSA, 25 °C, 30 min; product Δ2-OPC4-CoA
T2 construct: pET28a (plasmid as in Yuan et al. 2017), purified from E. coli
T2 sequence (O65201 50-692): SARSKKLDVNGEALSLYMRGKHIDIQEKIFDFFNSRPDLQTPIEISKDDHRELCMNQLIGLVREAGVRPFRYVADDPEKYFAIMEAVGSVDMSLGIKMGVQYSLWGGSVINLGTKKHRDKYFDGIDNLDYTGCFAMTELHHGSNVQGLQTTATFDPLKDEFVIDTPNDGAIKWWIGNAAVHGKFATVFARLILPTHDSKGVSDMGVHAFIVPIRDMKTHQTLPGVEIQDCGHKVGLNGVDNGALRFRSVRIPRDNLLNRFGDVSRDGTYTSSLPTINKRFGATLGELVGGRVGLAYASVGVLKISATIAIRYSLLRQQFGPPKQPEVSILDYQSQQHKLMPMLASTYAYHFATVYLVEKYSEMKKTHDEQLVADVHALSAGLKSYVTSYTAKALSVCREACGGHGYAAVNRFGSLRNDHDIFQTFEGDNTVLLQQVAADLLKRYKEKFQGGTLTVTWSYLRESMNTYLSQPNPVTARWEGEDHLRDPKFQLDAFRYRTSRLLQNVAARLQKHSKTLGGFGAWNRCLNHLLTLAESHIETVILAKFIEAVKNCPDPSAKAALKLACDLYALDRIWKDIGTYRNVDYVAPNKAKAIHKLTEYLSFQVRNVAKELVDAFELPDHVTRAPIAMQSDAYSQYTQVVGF

CC/C=C\C[C@@H]1C(=O)CC[C@@H]1CCCC(=O)SCCNC(=O)CCNC(=O)[C@H](O)C(C)(C)COP(=O)(O)OP(=O)(O)OC[C@H]1O[C@@H](n2cnc3c(N)ncnc32)[C@H](O)[C@@H]1OP(=O)(O)O [OPC4‐CoA]
MALDI-TOF/TOF MS of substrate and product [1]: The enzymatic activities of ACX2 and ACX3 were assessed with OPC4‐CoA as the substrate | MALDI-TOF/TOF MS of substrate and product [2]: The enzymatic activities of ACX2 and ACX3 were assessed with OPC4‐CoA as the substrate
